The test addresses T1, human OX2R (Homo sapiens, UniProt O43614).
T1 construct: expressed in transfected cells; host or cells: CHO (Chinese hamster ovary) cells grown under G418 selection
T1 sequence (O43614 1-444): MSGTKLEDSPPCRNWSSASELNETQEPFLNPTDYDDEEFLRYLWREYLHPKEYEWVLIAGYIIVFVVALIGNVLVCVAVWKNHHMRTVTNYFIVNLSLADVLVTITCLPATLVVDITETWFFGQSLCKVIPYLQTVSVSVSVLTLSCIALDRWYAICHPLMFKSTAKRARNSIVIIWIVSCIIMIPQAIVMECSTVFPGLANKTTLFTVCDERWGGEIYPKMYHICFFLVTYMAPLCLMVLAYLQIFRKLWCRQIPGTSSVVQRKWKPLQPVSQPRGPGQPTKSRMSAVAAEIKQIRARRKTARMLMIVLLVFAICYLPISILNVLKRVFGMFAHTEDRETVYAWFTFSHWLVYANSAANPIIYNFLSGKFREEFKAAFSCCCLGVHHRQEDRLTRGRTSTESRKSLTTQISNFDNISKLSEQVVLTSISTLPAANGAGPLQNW
Put plainly: IPOne (IP-1 accumulation) assay in CHO cells expressing human OX2R. It counts as cell-based. Particulars: for EC50: CHO cells expressing human OX2R, IP-One assay, 2 h incubation, four parameter logistic fit, read-out: OX2R Potency, EC50; for % of maximum agonist effect (relative to Orexin A): percent effect vs mean max effect of a reference compound at 1 uM (100% activity vs Orexin A), human OX2R. The procedure, abridged: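 Agonist EC50 values come from the inflection point of four-parameter logistic curves. Read-out is IP-1 accumulation detected with lysis buffer plus D2 and AB-cryptate reagents (HTRF), in CHO cells engineered to express human OX2R.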

The EC50 is the concentration needed to bring the measured effect to its halfway point.

Regarding `CCN(C(=O)N[C@@H](CCC(F)(F)F)C(F)(F)F)C(c1cnc(OC)c(-c2cn3ccnc3c(OC)n2)n1)C(F)(F)F` (stereo partly drawn) [Example 10-5, 1-ethyl-3-((S)-1,1,1,5,5,5-hexafluoropentan-2-yl)-1-(2,2,2-trifluoro-1-(5-methoxy-6-(8-methoxyimidazo[1,2-a]pyrazin-6-yl)pyrazin-2-yl)ethyl)urea], the EC50 stood at 2.5 nM and the “% of maximum agonist effect (relative to Orexin A)” value is 101.6%.
On to `CCN(C(=O)N[C@@H](CCC(F)(F)F)C(F)(F)F)C(c1cc(-c2cn3ccnc3c(OC)n2)c(OC)c(C)n1)C(F)(F)F` (stereo partly drawn) [Example 10-6, 1-ethyl-3-((S)-1,1,1,5,5,5-hexafluoropentan-2-yl)-1-(2,2,2-trifluoro-1-(5-methoxy-4-(8-methoxyimidazo[1,2-a]pyrazin-6-yl)-6-methylpyridin-2-yl)ethyl)urea], for which the EC50 came to 9.2 nM and the “% of maximum agonist effect (relative to Orexin A)” value was found to be 98.9%.
In the same order, the values of `CCN(C(=O)N[C@@H](CCC(F)(F)F)C(F)(F)F)C(c1cc(-c2cc(OC)c3nc(C#N)cn3c2)c(OC)cn1)C(F)(F)F` (stereo partly drawn) [Example 10-7, 1-(1-(4-(2-cyano-8-methoxyimidazo[1,2-a]pyridin-6-yl)-5-methoxypyridin-2-yl)-2,2,2-trifluoroethyl)-1-ethyl-3-((S)-1,1,1,5,5,5-hexafluoropentan-2-yl)urea] are 1.5 nM and 102.7%.
In the same order, the values of `CCN(C(=O)N[C@@H](CCC(F)(F)F)C(F)(F)F)[C@@H](c1cc(-c2cc3scnc3c(OC)n2)c(OC)cn1)C(F)(F)F` [Example 10-8, 1-ethyl-3-((S)-1,1,1,5,5,5-hexafluoropentan-2-yl)-1-((S)-2,2,2-trifluoro-1-(5-methoxy-4-(4-methoxythiazolo[4,5-c]pyridin-6-yl)pyridin-2-yl)ethyl)urea] are 2.3 nM and 100.7%.
In the same order, the values of `CCN(C(=O)N[C@@H](CCC(F)(F)F)C(F)(F)F)[C@@H](c1cc(-c2cn3cc(C)nc3c(OC)n2)c(OC)cn1)C(F)(F)F` [Example 10-9, 1-ethyl-3-((S)-1,1,1,5,5,5-hexafluoropentan-2-yl)-1-((S)-2,2,2-trifluoro-1-(5-methoxy-4-(8-methoxy-2-methylimidazo[1,2-a]pyrazin-6-yl)pyridin-2-yl)ethyl)urea] are 2.7 nM and 102.5%.
Take `CCN(C(=O)N[C@@H](CCC(F)(F)F)C(F)(F)F)C(c1cc(-c2cc(OC)c3nccn3n2)c(OC)cn1)C(F)(F)F` (stereo partly drawn) [Example 10-10, 1-ethyl-3-((S)-1,1,1,5,5,5-hexafluoropentan-2-yl)-1-(2,2,2-trifluoro-1-(5-methoxy-4-(8-methoxyimidazo[1,2-b]pyridazin-6-yl)pyridin-2-yl)ethyl)urea]: the EC50 worked out at 4.7 nM and the “% of maximum agonist effect (relative to Orexin A)” value turned out to be 100.8%.
Taken in the same sequence, the figures for `CCN(C(=O)N[C@@H](CCC(F)(F)F)C(F)(F)F)C(c1cc(-c2cc(OC)c3ncccc3c2)c(OC)cn1)C(F)(F)F` (stereo partly drawn) [Example 10-11, 1-ethyl-3-((S)-1,1,1,5,5,5-hexafluoropentan-2-yl)-1-(2,2,2-trifluoro-1-(5-methoxy-4-(8-methoxyquinolin-6-yl)pyridin-2-yl)ethyl)urea] were 7.3 nM and 101.3%.
In the same order, the values of `CCN(C(=O)N[C@@H](CCC(F)(F)F)C(F)(F)F)C(c1cc(-c2cn3c(C#N)cnc3c(OC)n2)c(OC)cn1)C(F)(F)F` (stereo partly drawn) [Example 10-12, 1-(1-(4-(3-cyano-8-methoxyimidazo[1,2-a]pyrazin-6-yl)-5-methoxypyridin-2-yl)-2,2,2-trifluoroethyl)-1-ethyl-3-((S)-1,1,1,5,5,5-hexafluoropentan-2-yl)urea] are 70.1 nM and 100.5%.
In the same order, the values of `CCN(C(=O)N[C@@H](CCC(F)(F)F)C(F)(F)F)C(c1cc(-c2cc(OC)c3nccnc3c2)c(OC)cn1)C(F)(F)F` (stereo partly drawn) [Example 10-13, 1-ethyl-3-((S)-1,1,1,5,5,5-hexafluoropentan-2-yl)-1-(2,2,2-trifluoro-1-(5-methoxy-4-(8-methoxyquinoxalin-6-yl)pyridin-2-yl)ethyl)urea] are 132 nM and 101.7%.
For the molecule `CCN(C(=O)N[C@@H](CCC(F)(F)F)C(F)(F)F)[C@@H](c1cc(-c2cc(OC)c3[nH]cnc3c2)c(OC)cn1)C(F)(F)F` [Example 10-15, 1-ethyl-3-((S)-1,1,1,5,5,5-hexafluoropentan-2-yl)-1-((S)-2,2,2-trifluoro-1-(5-methoxy-4-(7-methoxy-1H-benzo[d]imidazol-5-yl)pyridin-2-yl)ethyl)urea], the EC50 was determined as 6.4 nM and the “% of maximum agonist effect (relative to Orexin A)” value turned out to be 99.8%.
Taken in the same sequence, the figures for `CCN(C(=O)N[C@@H](CCC(F)(F)F)C(F)(F)F)C(c1cc(-c2cn3ccnc3c(OC)n2)cc(OC)n1)C(F)(F)F` (stereo partly drawn) [Example 10-16, 1-ethyl-3-((S)-1,1,1,5,5,5-hexafluoropentan-2-yl)-1-(2,2,2-trifluoro-1-(6-methoxy-4-(8-methoxyimidazo[1,2-a]pyrazin-6-yl)pyridin-2-yl)ethyl)urea] were 35.2 nM and 97.9%.
Taken in the same sequence, the figures for `CCN(C(=O)N[C@@H](CCC(F)(F)F)C(F)(F)F)C(c1cc(-c2cn3ccnc3c(OC)n2)cnc1OC)C(F)(F)F` (stereo partly drawn) [Example 10-17, 1-ethyl-3-((S)-1,1,1,5,5,5-hexafluoropentan-2-yl)-1-(2,2,2-trifluoro-1-(2-methoxy-5-(8-methoxyimidazo[1,2-a]pyrazin-6-yl)pyridin-3-yl)ethyl)urea] were 88.8 nM and 100.5%.
In the same order, the values of `CCN(C(=O)N[C@@H](CCC(F)(F)F)C(F)(F)F)[C@H](C)c1cnc(C)c(-c2cn3ccnc3c(OC)n2)c1` [Example 10-18, 1-ethyl-3-((S)-1,1,1,5,5,5-hexafluoropentan-2-yl)-1-((R)-1-(5-(8-methoxyimidazo[1,2-a]pyrazin-6-yl)-6-methylpyridin-3-yl)ethyl)urea] are 11.9 nM and 99.8%.
As for `CCN(C(=O)N[C@@H](CCC(C)(F)F)C(F)(F)F)[C@H](C)c1cnc(OC)c(-c2cn3ccnc3c(OC)n2)c1` [Example 10-19, 1-ethyl-1-((R)-1-(6-methoxy-5-(8-methoxyimidazo[1,2-a]pyrazin-6-yl)pyridin-3-yl)ethyl)-3-((S)-1,1,1,5,5-pentafluorohexan-2-yl)urea], the EC50 turned out to be 0.8 nM and the “% of maximum agonist effect (relative to Orexin A)” value stood at 100.6%.
Taken in the same sequence, the figures for `CCN(C(=O)N[C@@H](CCC(F)(F)F)C(F)(F)F)C(c1ccc(OC)c(-c2cn3ccnc3c(OC)n2)n1)C(F)(F)F` (stereo partly drawn) [Example 10-20, 1-ethyl-3-((S)-1,1,1,5,5,5-hexafluoropentan-2-yl)-1-(2,2,2-trifluoro-1-(5-methoxy-6-(8-methoxyimidazo[1,2-a]pyrazin-6-yl)pyridin-2-yl)ethyl)urea] were 0.7 nM and 101.0%.
Taken in the same sequence, the figures for `CCN(C(=O)N[C@@H](CCC(F)(F)F)C(F)(F)F)[C@@H](c1cc(-c2cn3ccnc3c(OC)n2)c(C)cn1)C(F)(F)F` [Example 10-21, 1-ethyl-3-((S)-1,1,1,5,5,5-hexafluoropentan-2-yl)-1-((S)-2,2,2-trifluoro-1-(4-(8-methoxyimidazo[1,2-a]pyrazin-6-yl)-5-methylpyridin-2-yl)ethyl)urea] were 1.6 nM and 100.9%.
As for `CCN(C(=O)N[C@@H](CCC(F)(F)F)C(F)(F)F)C(c1cncc(-c2cn3ccnc3c(OC)n2)c1)C(F)(F)F` (stereo partly drawn) [Example 10-22, 1-ethyl-3-((S)-1,1,1,5,5,5-hexafluoropentan-2-yl)-1-(2,2,2-trifluoro-1-(5-(8-methoxyimidazo[1,2-a]pyrazin-6-yl)pyridin-3-yl)ethyl)urea], the EC50 was found to be 76.9 nM and the “% of maximum agonist effect (relative to Orexin A)” value stood at 99.4%.
Taken in the same sequence, the figures for `CC[C@H](CCC(F)(F)F)NC(=O)N(CC)[C@H](C)c1cc2c(c(-c3ccc4nccn4c3)c1)OCC2` [Example 11-1, 1-ethyl-1-((R)-1-(7-(imidazo[1,2-a]pyridin-6-yl)-2,3-dihydrobenzofuran-5-yl)ethyl)-3-((R)-6,6,6-trifluorohexan-3-yl)urea] were 5.6 nM and 97.4%.
In the same order, the values of `CC[C@H](CCC(F)(F)F)NC(=O)N(CC)[C@H](C)c1cc(-c2ccc3nccn3c2)c(OC)cc1F` [Example 11-2, 1-ethyl-1-((R)-1-(2-fluoro-5-(imidazo[1,2-a]pyridin-6-yl)-4-methoxyphenyl)ethyl)-3-((R)-6,6,6-trifluorohexan-3-yl)urea] are 80.5 nM and 98.5%.
In the same order, the values of `CC[C@H](CCC(F)(F)F)NC(=O)N(CC)[C@H](C)c1ccc(Br)c(-c2ccc3nccn3c2)c1` [Example 11-3, 1-((R)-1-(4-bromo-3-(imidazo[1,2-a]pyridin-6-yl)phenyl)ethyl)-1-ethyl-3-((R)-6,6,6-trifluorohexan-3-yl)urea] are 129 nM and 91.8%.

The values are drawn from patent US12692262B2, “Substituted ureas as orexin receptor agonists” (Merck Sharp & Dohme LLC, priority 2020, dated 2026).
